Measurements taken from ChEMBL document CHEMBL4419121, “Tetrahydropyridopyrazines modulators of gpr6” (2018).
pIC50: −log10 of the molar value.

Columns and labels:
[1] = target: T1, G-protein coupled receptor 6 (Homo sapiens, UniProt P46095); assay: Modulation activity at GPR6 receptor (unknown origin) expressed in CHO-K1 cells assessed as inhibition of constitutive cAMP activity incubated for 45 mins in presence of 300 uM IBMX by Perkin Elmer Lance HTRF Ultrac-AMP assay; format: functional, cell-based
T1 sequence (P46095 whole entry): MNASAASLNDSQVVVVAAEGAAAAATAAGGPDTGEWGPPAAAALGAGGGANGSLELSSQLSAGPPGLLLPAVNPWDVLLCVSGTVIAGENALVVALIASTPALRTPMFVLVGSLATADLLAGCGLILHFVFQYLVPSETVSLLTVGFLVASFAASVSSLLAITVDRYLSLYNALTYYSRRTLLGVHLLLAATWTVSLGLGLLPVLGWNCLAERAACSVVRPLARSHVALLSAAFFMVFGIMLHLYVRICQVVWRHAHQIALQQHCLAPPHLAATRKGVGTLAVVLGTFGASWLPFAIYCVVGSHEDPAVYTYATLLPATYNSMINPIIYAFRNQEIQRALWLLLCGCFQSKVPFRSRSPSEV

[2] = target: T1, G-protein coupled receptor 6; assay: Modulation activity at GPR6 receptor (unknown origin) expressed in CHO-K1 cells assessed as inhibition of constitutive cAMP activity incubated for 45 mins by Perkin Elmer Lance HTRF Ultrac-AMP assay; format: functional, cell-based

SMILES	pIC50 ([1]; cho-k1)	also measured
CCC(=O)N1CCc2nc(N3CCC(Oc4ccc(F)cc4F)CC3)c(NC(C)C)nc2C1	7.56	
CC1c2nc(NCC(F)F)c(N3CCC(Oc4ccc(F)cc4F)CC3)nc2CCN1C(=O)C1CC1 (stereo not given)		pIC50 [2]: 7.07
CC(C)Nc1nc2c(nc1N1CCC(Oc3ccc(F)cc3F)CC1)CN(CCF)CC2	7.16	
COC[C@H](C)Nc1nc2c(nc1N1CCC(Oc3ccc(F)cc3F)CC1)CCN(C(C)=O)C2		pIC50 [1]: 6.97
CC(C)Nc1nc2c(nc1N1CCC(Oc3ccc(F)cc3F)CC1)CCN(C(=O)C1CC1)C2	6.47	
CC1c2nc(N3CCC(Oc4ccc(F)cc4F)CC3)c(NCC(F)F)nc2CCN1C(=O)C(F)F (stereo not given)	6.71	
CC[C@@H](C)Nc1nc2c(nc1N1CCC(Oc3ccc(F)cc3F)CC1)CCN(C(C)=O)C2	6.50	
CC(=O)N1CCc2nc(N3CCN(Cc4ccc(F)cc4F)CC3)c(NC3CCC3)nc2C1	7.36	
CC(=O)N1CCc2nc(N3CCC(Oc4ccc(F)cc4F)CC3)c(NC3CC(F)(F)C3)nc2C1	7.44	
CC(=O)N1CCc2nc(N3CCN(Cc4ccc(F)cc4F)CC3)c(N[C@H]3C[C@@H](O)C3)nc2C1	6.91	
CC(C)Nc1nc2c(nc1N1CCC(Oc3ccc(F)cc3F)CC1)CCN(C(=O)N(C)C)C2C (stereo not given)	6.96	
CC(C)Nc1nc2c(nc1N1CCC(Oc3ccc(F)cc3F)CC1)CN(CC(F)F)CC2	6.70	
COC(=O)N1CCc2nc(NC(C)C)c(N3CCC(Oc4ccc(F)cc4F)CC3)nc2C1	6.88	
CC(C)Nc1nc2c(nc1N1CCC(Oc3ccc(F)cc3F)CC1)CCN(C)C2	7.05	
CC(=O)N1CCc2nc(N3CCN(Cc4ccc(F)cc4F)CC3)c(NC(C)C)nc2C1	7.57	
CC(=O)N1CCc2nc(N3CCN(Cc4ccc(F)cc4F)CC3)c(N[C@H]3C[C@H](F)C3)nc2C1	6.73	
COc1ccc(OC2CCN(c3nc4c(nc3NC(C)C)CN(C(C)=O)CC4)CC2)c(F)c1	7.13	
CC(=O)O[C@H]1C[C@H](Nc2nc3c(nc2N2CCC(Oc4ccc(F)cc4F)CC2)CCN(C(C)=O)C3)C1	6.22	
CC(C)Nc1nc2c(nc1N1CCC(Oc3ccc(F)cc3F)CC1)C(C)N(C(=O)N(C)C)CC2 (stereo not given)	6.75	
[2H]C([2H])([2H])C(=O)N1CCc2nc(N3CCC(Oc4ccc(F)cc4F)CC3)c(NC(C)C)nc2C1		pIC50 [1]: 7.47
O=C(C(F)F)N1CCc2nc(NCC(F)F)c(N3CCC(Oc4ccc(F)cc4F)CC3)nc2C1	6.96	
COc1ccc(OC2CCN(c3nc4c(nc3NC(C)C)CN(C)CC4)CC2)c(F)c1	6.85	
COCC(=O)N1CCc2nc(NCC(F)F)c(N3CCC(Oc4ccc(F)cc4F)CC3)nc2C1	7.10	

SMILES	pIC50 ([1]; cho-k1)	also measured
CC(C)Nc1nc2c(nc1N1CCC([C@@H](F)c3ccc(F)cc3F)CC1)CCN(C=O)C2	7.63	
CC(C)Nc1nc2c(nc1N1CCC(Oc3ccc(F)cc3F)CC1)CCN(C(=O)C(F)F)C2	6.89	
CC(=O)N1CCc2nc(N3CCC(Oc4ccc(F)cc4F)CC3)c(N[C@H]3C[C@H](O)C3)nc2C1	7.11	
CC(C)Nc1nc2c(nc1N1CCC(Oc3ccc(F)cc3F)CC1)CCN(S(C)(=O)=O)C2C (stereo not given)	7.23	
CC(C)Nc1nc2c(nc1N1CCC(C(F)c3ccc(F)cc3F)CC1)CN(C)CC2 (stereo not given)	7.77	
CC1c2nc(NCC(F)F)c(N3CCC(Oc4ccc(F)cc4F)CC3)nc2CCN1C(=O)C(F)F (stereo not given)	6.67	
CC(C)Nc1nc2c(nc1N1CCC(Oc3ccc(F)cc3F)CC1)CN(S(C)(=O)=O)CC2	7.02	
CC(=O)N1CCc2nc(N3CCC([C@@H](F)c4ccc(F)cc4F)CC3)c(NC(C)C)nc2C1	7.42	
COc1cccc(S(=O)(=O)C2CCN(c3nc4c(nc3NC(C)C)CCN(C(C)=O)C4)CC2)c1	6.47	
CC(=O)O[C@H]1C[C@@H](Nc2nc3c(nc2N2CCC(Oc4ccc(F)cc4F)CC2)CCN(C(C)=O)C3)C1	6.95	
CC(C)Nc1nc2c(nc1N1CCN(Cc3ccc(F)cc3F)CC1)CCN(C(=O)C(C)C)C2	7.54	
COc1ccc(OC2CCN(c3nc4c(nc3NC(C)C)CCN(C(C)=O)C4)CC2)c(F)c1	7.20	
CS(=O)(=O)N1CCc2nc(NCC(F)F)c(N3CCC(Oc4ccc(F)cc4F)CC3)nc2C1	6.79	
CC(=O)N1CCc2nc(N3CCC(Oc4ccc(F)cc4F)CC3)c(NC(C)C)nc2C1C (stereo not given)	7.14	
CC(=O)N1CCc2nc(N3CCC([C@H](F)c4ccc(F)cc4F)CC3)c(NC(C)C)nc2C1	7.56	
COCC(=O)N1CCc2nc(N3CCC(Oc4ccc(F)cc4F)CC3)c(NC(C)C)nc2C1	7.15	
CC(C)Nc1nc2c(nc1N1CCC(Oc3ccc(F)cc3F)CC1)CN(C)CC2	7.23	
CCC(=O)N1CCc2nc(N3CCN(Cc4ccc(F)cc4F)CC3)c(N[C@H]3CCOC3)nc2C1	7.23	
CC(=O)N1CCc2nc(NC(C)C)c(N3CCC(S(=O)(=O)c4cccc(F)c4)CC3)nc2C1	6.60	
CC(C)Nc1nc2c(nc1N1CCC(C(F)c3ccc(F)cc3F)CC1)CCN(C)C2 (stereo not given)	7.52	
CC(C)Nc1nc2c(nc1N1CCC(Oc3ccc(F)cc3F)CC1)CN(C(=O)C1CC1)CC2	6.68	
CC(=O)N1CCc2nc(N3CCN(Cc4ccc(F)cc4F)CC3)c(N[C@H]3CCOC3)nc2C1	7.01	
